Results reported in patent US20240238213A1 (New York University in Abu Dhabi Corporation, priority 2021, published 2024).

Key:
R-HepG2 cells = test: Glucose consumption assay in insulin-resistant cells; format: cell-based, human; settings: R-HepG2, [Insulin]=10 μM
[1] = system: STZ-induced diabetic rats; test: In vivo hypoglycemic effect; parameters: species or system Wistar rats; settings: subcutaneous injection, 5 IU kg^−1
[2] = system: STZ-induced diabetic rats; settings: rat, in vivo
[3] = system: non-everted mouse small intestine sac; settings: pure insulin; cited from earlier work
[4] = system: STZ-induced diabetic rats; settings: SC insulin 5 IU·kg^−1 or oral TTA-DFP-nCOF/Insulin 50 IU·kg^−1
[5] = system: STZ-induced diabetic rats; test: In vivo oral glucose tolerance test (OGTT); parameters: species or system Wistar rats; settings: glucose 2.5 g·kg^−1 by gavage 3 hours after treatment, 280 minutes; SC 5 IU·kg^−1 or oral 50 IU·kg^−1
Hep-G2 cells = test: Insulin-FITC internalization in cells by confocal microscopy; format: cell-based, human; settings: 4 h incubation, [Insulin-FITC]=10 μM

## insulin
R-HepG2 cells; t=4 h
  change of cellular glucose metabolism after 4 h: transient increase in cellular glucose metabolism
R-HepG2 cells; t=24 h
  change of cellular glucose metabolism / insulin resistance after 24 h: statistically significant worsening
[1]
  persistence of the blood glucose reduction: the effect was not sustained
  time to marked reduction of the blood glucose level: ≤ 1 h
[2]
  histopathology of liver and kidney: commonly observed damages to the liver and kidney
  histopathology of the kidney: increase of the size of Bowman capsules, hypertrophy of the glomeruli and necrosis of the tubules
  histopathology of the liver: increase of big hepatocytes, a necrosis of hepatocytes and a narrowing in the sinusoids
[3]
  Permeability (reported value): 8.02 μg·cm^−2
[4]
  HOMA-IR: 0.6 (0.3)
  HOMA-IS: 50.4 (11.0)
[5]
  glycaemia in OGTT: decreases severely the glucose plasma level the two first hours after the glucose gavage
Hep-G2 cells
  intracellular insulin-FITC signal / localization: no detectable intracellular insulin-FITC signal
